One test has as its target T1, human CaSR (Homo sapiens, UniProt P41180).
T1 sequence (P41180 20-1078): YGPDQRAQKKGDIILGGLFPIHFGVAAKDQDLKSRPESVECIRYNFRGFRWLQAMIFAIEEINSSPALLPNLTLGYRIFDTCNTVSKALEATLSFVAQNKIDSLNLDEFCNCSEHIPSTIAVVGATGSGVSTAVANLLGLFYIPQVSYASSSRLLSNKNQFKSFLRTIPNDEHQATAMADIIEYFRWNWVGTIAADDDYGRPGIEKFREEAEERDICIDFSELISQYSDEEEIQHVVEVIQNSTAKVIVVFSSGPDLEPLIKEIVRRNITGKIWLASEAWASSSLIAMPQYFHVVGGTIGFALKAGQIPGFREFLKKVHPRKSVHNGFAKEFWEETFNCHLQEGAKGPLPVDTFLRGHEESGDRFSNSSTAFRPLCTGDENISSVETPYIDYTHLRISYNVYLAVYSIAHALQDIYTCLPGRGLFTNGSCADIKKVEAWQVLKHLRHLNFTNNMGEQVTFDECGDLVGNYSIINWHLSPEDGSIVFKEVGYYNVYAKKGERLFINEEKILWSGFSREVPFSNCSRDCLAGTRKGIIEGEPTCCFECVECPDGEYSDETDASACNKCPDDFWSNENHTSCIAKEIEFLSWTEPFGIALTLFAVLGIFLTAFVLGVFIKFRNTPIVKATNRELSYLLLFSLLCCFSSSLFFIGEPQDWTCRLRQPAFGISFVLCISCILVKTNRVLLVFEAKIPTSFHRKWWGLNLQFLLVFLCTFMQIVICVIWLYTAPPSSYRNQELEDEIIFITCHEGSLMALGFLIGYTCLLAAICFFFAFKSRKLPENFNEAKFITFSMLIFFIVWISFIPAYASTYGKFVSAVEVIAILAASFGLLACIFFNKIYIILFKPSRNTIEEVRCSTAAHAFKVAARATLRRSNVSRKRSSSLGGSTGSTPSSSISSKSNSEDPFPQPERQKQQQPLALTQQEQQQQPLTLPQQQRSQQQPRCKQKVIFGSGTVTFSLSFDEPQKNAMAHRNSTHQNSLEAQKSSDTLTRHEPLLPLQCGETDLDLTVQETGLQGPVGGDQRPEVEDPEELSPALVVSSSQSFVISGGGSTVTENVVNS
The experiment in a line: CaSR binding assay (radioligand, HEK293 membranes). More on the design: expressed in transfected cells; host or cells: HEK293 cell membranes. To be noted: radio-labeled compound used as ligand; read-out: apparent Kd. As to the method:
Procedures for CaSR Binding Assay
Membrane preparations from HEK293 cells expressing the human CaSR were generated. The cells were cultured and then washed twice with 1×PBS. The cells were dissociated by adding 4 ml pre-warmed 0.25% Trypsin-EDTA, and by incubating the flask at RT for 3 minutes. 10 ml media was dispensed over the cell layer surface, and the cells were harvested into a centrifuge tube. The cells were centrifuged at 200×g for 10 minutes. The cell pellet was suspended in 30 ml of membrane preparation buffer and then homogenized on ice twice at 16000 rpm for 10 seconds. Following homogenization, the membrane was collected by centrifuge at 40000×g for 30 minutes at 4° C., washed twice with 30 ml membrane preparation buffer, and centrifuged again at 40000×g for 10 minutes. The membrane pellet was suspended in 30 ml membrane preparation buffer (50 mM Tris, pH7.0, 10 mM MgCl, Proteinase inhibitor (Roche, REF 04693116001), and then homogenized on ice once at 16000 rpm for 10 seconds. The total protein concentration was measured using a BCA kit. The membrane protein concentration was adjusted to 2.4 mg/ml and then diluted with binding buffer (10 mM HEPES, pH7.4, 130 mM NaCl, 0.4 mM CaCl2, 5 mM MgCl2, 1 mM EGTA, 10 mM glucose, 0.1% BSA) to 0.33 μg/μl. The final amount in the binding assay was 20 μg/well. Test compound was serially diluted manually by using BIOHIT multi-channel pipettor in 100% DMSO (10 point, 3-fold dilution of each compound from 5.0 μM in 100% DMSO). 4 μl of serially diluted compound was manually transferred into a second assay microplate that contained 196 μl of binding assay buffer to create the intermediate dilution plate. For background, 20 μl of assay buffer was added to each control well. […] The binding reaction used a 100 μl reaction volume consisting of 10 μl of test compound, 30 μl of diluted radio-labelled compound, and 60 μl of membrane solution (0.33 μg/μl). The reaction mixture was incubated at room temperature for one hour. The Grade GF/C filter plates were presoaked in 0.3% PEI (protect from light) for 60 minutes at room temperature. The plate was then washed three times with ice-cold wash buffer (25 mM Tris-HCl, PH7.4, 130 mM NaCl, 5 mM MgCl2, 0.4 mM CaCl2, 0.1% BSA) prior to filtration of the binding samples. The binding reaction was terminated by rapid filtration of 100 μl binding mixture through the GF/C plate. Plates were then washed 6 times with ice-cold wash buffer. Filter plates were dried with a hair dryer for 20 minutes. 60 μl/well MICROSCINT 20 (a cocktail for microplates) was added to the bottom of sealed filters, then the filters were sealed at the top with tape. Bound radioactivity was counted in a TOPCOUNT scintillation counter. Exemplary compounds bind in the 1-500 nM range.

The target of the next test is T2, calcium sensing receptor (Homo sapiens, UniProt P41180).
T2 sequence (P41180 20-1078): T1 sequence (P41180 20-1078)
The experiment in a line: Calcium sensing receptor antagonist activity (test not specified).

SMILES strings stand for the structures.

With `CC(C)(CC1Cc2ccccc2C1)NC[C@@H](O)COc1cc(-c2ccc(C(=O)O)cc2)ccc1F` [Example 25, (R)-3′-(3-((1-(2,3-dihydro-1H-inden-2-yl)-2-methylpropan-2-yl)amino)-2-hydroxypropoxy)-4′-fluoro-[1,1′-biphenyl]-4-carboxylic acid], the Kd at human CaSR was found to be 0.4 µM. Also, at calcium sensing receptor, the “calcium sensing receptor antagonist activity” value was “shows calcium sensing receptor antagonist activity”.

The values are drawn from US20160311791A1, “NOVEL TRICYCLIC CALCIUM SENSING RECEPTOR ANTOGONISTS FOR THE TREATMENT OF OSTEOPOSOSIS” (MERCK SHARP & DOHME CORP., priority 2013, published 2016).
